Data on two sequences can be found in patent US12428455B2, “Dominant negative CEBPB and CEBPD proteins and methods of use for decreasing viability of neoplastic cells” (The Trustees of Columbia University in the City of New York, priority 2018, dated 2025).

No end group written: not given here.

Data set [1] concerns A375 cells. The data set is described as follows: A375 subcutaneous tumors, 10 or 20 mg/kg study. The following applies: 10 or 20 mg/kg intraperitoneally; for tumor growth (calculated tumor volumes): to day 24. The format is in vivo, NCR nude mice. On the procedure:
A375 cells were subcutaneously implanted in the flanks of NCR nude mice. After tumors had formed, the animals were treated intraperitoneally with 10 or 20 mg/kg of CP-dn-CEBPB, CP-dn-CEBPD or vehicle as indicated in the schema shown in FIG. 37A. Animal weight was monitored (FIG. 37B). Tumor sizes were measured and volumes calculated on each day of injection. […] FIG. 37D compares calculated individual and mean tumor volumes for vehicle, CP-dn-CEBPB and CP-dn-CEBPD treated animals on day 24.

The test system of data set [2] is HCT116 cells. The data set is described as follows: Combination with gamma radiation, cell number, HCT116. The note with it: 2 Gy or 5 Gy; peptide 0.05, 0.5 or 5 μM one day later, 6 days; CI<1 indicates synergism. In kind it is cell-based. On the procedure: Replicate cultures of T98G and HCT116 cells were exposed to 2 Gy or 5 Gy of gamma radiation. One day later, the cultures were treated with 0.05 μM, 0.5 μM, or 5 μM CP-dn-CEBPB and CP-dn-CEBPD peptides, maintained for 6 days, and then assessed for cell number. The bar graphs of FIGS. 24A (T98G, CP-dn-CEBPB), 24C (T98G, CP-dn-CEBPBD, 24E (HCT116, CP-dn-CEBPD), and 24G (HCT116, CP-dn-CEBPD) show relative cell numbers for each condition as compared to untreated controls. The line graphs of FIGS. 24B (T98G, CP-dn-CEBPB), 24D (T98G, CP-dn-CEBPBD, 24F (HCT116, CP-dn-CEBPB), and 24H (HCT116, CP-dn-CEBPD) show the response as normalized in each case so that 100 represents the relative number of surviving cells that received the indicated level of radiation treatment, but no peptide treatment. Calculated Combination Indexes (CI) are T98G, CI=0.61±0.05 for CP-dn-CEBPB, 0.68±0.07 for CP-dn-CEBPD; HCT116, 0.89±0.04 for CP-dn-CEBPB, 0.86±0.05 for CP-dn-CEBPD. CI=1 indicates additivity; CI<1 indicates synergism; CI>1 indicates antagonism.

The next data set deals with LN229 glioblastoma cells. Put plainly: Cell number after peptide treatment, LN229. The note with it: for growth and survival of LN229 cells: 6 days, 0 μM to 50 μM, stock without BSA. In kind it is cell-based, human. On the procedure:
In some implementations, the mixture of arg/glu may be added at a molarity of, or of about 5 mM, 10 mM, 15 mM, 20 mM, 25 mM, or 30 mM.
Replicate cultures were exposed to the peptides the for 6 days at the indicated concentrations. Stock solutions of the peptides were prepared in buffer without added bovine serum albumin (BSA).

For data set [3], the system named is A375 cells. The data set is described as follows: A375 subcutaneous tumors, 20 mg/kg survival study. The format is in vivo, NCR nude mice. The following applies: 20 mg/kg intraperitoneally. On the procedure: A375 cells were subcutaneously implanted in the flanks of NCR nude mice. Once tumors had formed, the animals were treated intraperitoneally with 20 mg/kg of CP-dn-CEBPD or vehicle as indicated in the schema shown in FIG. 39A. Animal weight was monitored (FIG. 39B). Tumor sizes were measured and volumes calculated on each day of injection. […] FIG. 39D compares calculated individual and mean tumor volumes for vehicle and CP-dn-CEBPD treated animals on day 28.

The next data set relates to A375 xenograft tumors. The data set is described as follows: TUNEL staining of A375 xenograft tumors. The format is in vivo, mice. The note with it: 20 mg/kg, retreated 2 days later, tumors harvested after additional 2 days. On the procedure:
Subcutaneous A375 xenograft tumors were established in mice. When the tumors reached approximately 300 mm^3, randomly chosen animals were treated with vehicle or 20 mg/kg of CP-dn-CEBPD. The animals were retreated 2 days later and, after an additional 2 days, the animals were sacrificed, and the tumors harvested for histology and TUNEL staining to detect apoptosis. Results are presented in FIG. 42A (vehicle) and FIG. 42B (CP-dn-CEBPD).

The next data set relates to BMF. The data set is described as follows: Apoptotic nuclei after BMF knockdown siRNA and CP-dn-CEBPD. In kind it is cell-based. The note with it: siRNA 2 days, then 20 μM peptide 2 days; T98G, MCF7, A375 and HCT116 cells. On the procedure: T98G, MCF7, A375, and HCT116 cells were treated with one of two BMF knockdown siRNAs or control siRNA for 2 days, then treated with or without 20 μM CP-dn-CEBPD for 2 days. Cultures were assessed for % of apoptotic nuclei (n=6 random fields) (FIG. 36A, T98G; FIG. 36B, MCF7; FIG. 38C, A375; FIG. 36D, HCT116).

In data set [4] the test system is HCT116 cells. The data set is described as follows: HCT116 subcutaneous tumors. The format is in vivo, NCR nude mice. The note with it: 20 mg/kg intraperitoneally. On the procedure: HCT116 cells were subcutaneously implanted in the flanks of NCR nude mice. After tumors formed, the animals were treated intraperitoneally with 20 mg/kg of CP-dn-CEBPD or vehicle as indicated in the schema shown FIG. 40A. Animal weight was monitored (FIG. 40). […] FIG. 40D compares calculated individual and mean tumor volumes for vehicle and CP-dn-CEBPD treated animals on day 11.

The next data set concerns B16-F10 cells. Put plainly: B16-F10 subcutaneous tumors. The format is in vivo, C56BL/6 mice. The note with it: 20 or 50 mg/kg intraperitoneally. On the procedure:
B16-F10 cells were subcutaneously implanted in the flanks of C56BL/6 mice. After the tumors were established, the mice were treated intraperitoneally with 20 or 50 mg/kg of CP-dn-CEBPD or vehicle as indicated in the schema shown in FIG. 38A. Animal weight was monitored (FIG. 38B). […] FIG. 38D compares calculated individual and mean tumor volumes for each group of animals on day 12.

Setting [5] is: endpoint morbid behavior or tumor >1000 mm^3.

As to “RQIKIWFQNRRMKWKKLETQHKVLELTAENERLQKKVEQLSRELSTLRNLFKQL [CP-DN-CEBPB]”, in the data set on A375 cells [1], the “side effects (animal weight monitored)” value is recorded as “no apparent side effects” and the “tumor growth (calculated tumor volumes)” value is reported as “suppressed tumor growth”. The “Combination Index (CI) with gamma radiation” value in the data set on HCT116 cells [2] is reported as 0.89±0.04. Also, in the data set with LN229 glioblastoma cells, the “growth and survival of LN229 cells” value is “decrease in growth and survival”. Moreover, in the data set with LN229 glioblastoma cells (cultured LN229 cells), the “effect of adding arg/glu mixture at 2 mM” value was “only minimal effect”.
“RQIKIWFQNRRMKWKKLVELSAENEKLHQRVEQLTRDLAGLRQFFK [CP-DN-CEBPD]”: the “side effects (animal weight monitored)” value with A375 cells [1], in the data set on A375 cells [3], in the data set on HCT116 cells [4] and in the data set on B16-F10 cells was “no apparent side effects” each time. The “tumor growth (calculated tumor volumes)” value with A375 cells [1], in the data set with A375 cells [3] (to day 28), in the data set with HCT116 cells [4] (to day 11) and in the data set with B16-F10 cells (to day 12-13) was “suppressed tumor growth” each time. Besides, the “Combination Index (CI) with gamma radiation” value in the data set with HCT116 cells [2] is given as 0.86±0.05. Moreover, the animal survival result with A375 cells [3] (setting [5]) and with HCT116 cells [4] (setting [5]) was “increased animal survival” each time. In addition, the “apoptosis of tumor cells (TUNEL staining)” value in the data set on A375 xenograft tumors is “causes apoptosis of tumor cells in vivo”. The “% of apoptotic nuclei with BMF knockdown siRNAs or control siRNA” value in the data set with BMF is recorded as “kills cancer cells by upregulating pro-apoptotic BMF”. The “growth and survival of LN229 cells” value in the data set on LN229 glioblastoma cells is “decrease in growth and survival”. For the same sequence, the “effect of adding arg/glu mixture at 2 mM” value in the data set with LN229 glioblastoma cells (cultured LN229 cells) is “only minimal effect”. Further, in the data set on LN229 glioblastoma cells (cultured LN229 cells), the “shift of IC50 by 20 mM arginine and glutamate” value turned out to be 10 fold.
